Results: US20230321100A1, “CD73 INHIBITOR AND APPLICATION THEREOF IN MEDICINE” (BETTA PHARMACEUTICALS CO., LTD, priority 2020, published 2023)

Target: T1, CD73 (Calu-6 cells) (Homo sapiens, UniProt P21589)
T1 construct: endogenous in cells; host or cells: Calu-6 cells
T1 sequence (P21589 27-549): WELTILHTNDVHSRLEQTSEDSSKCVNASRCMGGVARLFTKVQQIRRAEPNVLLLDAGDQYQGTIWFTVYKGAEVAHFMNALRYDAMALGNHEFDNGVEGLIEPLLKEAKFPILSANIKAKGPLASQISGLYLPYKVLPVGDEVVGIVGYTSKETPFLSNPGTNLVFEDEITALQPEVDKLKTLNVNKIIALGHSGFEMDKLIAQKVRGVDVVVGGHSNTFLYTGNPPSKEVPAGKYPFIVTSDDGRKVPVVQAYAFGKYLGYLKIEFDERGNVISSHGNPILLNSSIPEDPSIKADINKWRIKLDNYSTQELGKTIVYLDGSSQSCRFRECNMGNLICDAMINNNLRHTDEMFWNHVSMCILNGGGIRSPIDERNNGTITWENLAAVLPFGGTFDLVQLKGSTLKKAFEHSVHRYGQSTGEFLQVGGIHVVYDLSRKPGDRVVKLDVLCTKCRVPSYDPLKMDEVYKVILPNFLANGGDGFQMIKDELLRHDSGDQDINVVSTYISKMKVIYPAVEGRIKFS
Experiment: Enzymatic activity detection at the cellular level (Calu-6 cells, AMP substrate, Cell-titer Glo luminescence)
Type: cell-based
Settings: enzymatic IC50 at the Calu-6 cell level, 30 min pre-incubation, 120 min at 37° C.
Method: The Calu-6 cells were digested and re-suspended using TM buffer (25 mM Tris, 5 mM MgCl2, pH 7.5). Calu-6 cell suspension was seeded into 96 well cell culture plate, and the number of cells per well was 2.5×10^4, adding volume of 100 μL/well. Compound solution with gradient concentration was prepared by TM buffer, and 50 μL DMSO solution with different concentration was added into each pore cell. […] Pre-incubated in a shaker at 37° C. for 30 min. Each well was added with 50 μL 800 μM AMP solution. The shaker at 37° C. for 120 min was continued to incubate, then the 96-well plates were centrifuged and 50 μL supernatant was transferred to the new 96-well plates. […] The luminescence value was read by the multi-function enzymatic reader and converted into the inhibition percentage: Inhibition percentage=(1−reading/Max)*100. The “maximum value” was DMSO control. IC50 values were obtained by curve fitting with GraphPad Prism software.

| IC50 [nM] | Structure (SMILES) |
| --- | --- |
| 4.9 | O=c1[nH]cc(-c2cc(C3CC3c3c(F)cc(F)cc3F)c(Cl)nn2)c(=O)[nH]1 (centres unmarked) [Compound 72] |
| 9.9 | O=c1[nH]cc(-c2cc([C@H]3C[C@@H]3c3ccccc3)cnn2)c(=O)[nH]1 [Compound 59, 5-(5-((1S,2S)-2-phenylcyclopropyl)pyridazin-3-yl)pyrimidine-2,4(1H,3H)-dione] |
| 5.9 | O=c1[nH]cc(-c2cc(C3CC3c3cc(F)c(F)cc3F)c(Cl)nn2)c(=O)[nH]1 (centres unmarked) [Compound 73] |
| 46 | Cc1nnc(-c2c[nH]c(=O)[nH]c2=O)cc1[C@H]1C[C@@H]1C=C(F)F [Compound 11, 5-(5-((1S,2S)-2-(2,2-difluorovinyl)cyclopropyl)-6-methylpyridazin-3-yl)pyrimidine-2,4(1H,3H)-dione] |
| 19 | Cc1ccc(C2CC2c2cc(-c3c[nH]c(=O)[nH]c3=O)nnc2Cl)c(C)c1 (centres unmarked) [Compound 61] |
| 5.6 | N#Cc1ccc(C#C[C@H]2C[C@@H]2c2cc(-c3c[nH]c(=O)[nH]c3=O)nnc2C#N)cc1 [Compound 55] |
| 32 | O=C(O)c1cccc(C2CC2c2cc(-c3c[nH]c(=O)[nH]c3=O)nnc2Cl)c1 (centres unmarked) [Compound 75] |
| 2.7 | O=Cc1ccc(C2CC2c2cc(-c3c[nH]c(=O)[nH]c3=O)nnc2Cl)cc1 (centres unmarked) [Compound 74] |
| 13.4 | O=c1[nH]cc(-c2cc(C3CC3c3ccc(F)c(C(F)(F)F)c3)c(Cl)nn2)c(=O)[nH]1 (centres unmarked) [Compound 69] |
| 4.3 | COc1nnc(-c2c[nH]c(=O)[nH]c2=O)cc1[C@H]1C[C@@H]1C#Cc1cccc(C#N)c1 [Compound 51] |
| 4.7 | Cc1ccc(C2CC2c2cc(-c3c[nH]c(=O)[nH]c3=O)nnc2Cl)cc1F (centres unmarked) [Compound 65] |
| 12.6 | COc1nnc(-c2c[nH]c(=O)[nH]c2=O)cc1[C@H]1C[C@@H]1C#Cc1ccc(C#N)cc1 [Compound 50] |
| 2.5 | C=C[C@H]1C[C@@H]1c1cc(-c2c[nH]c(=O)[nH]c2=O)nnc1OC [Compound 39, 5-(6-methoxy-S-((1S,2R)-2-vinylcyclopropyl)pyridazin-3-yl)pyrimidine-2,4(1H,3H)-dione] |
| 7.8 | O=c1[nH]cc(-c2cc([C@H]3C[C@@H]3C#Cc3ccc(Cl)cc3)c(Cl)nn2)c(=O)[nH]1 [Compound 47] |
| 1.9 | N#Cc1nnc(-c2c[nH]c(=O)[nH]c2=O)cc1C1CC1c1ccc(Cl)cc1 (centres unmarked) [Compound 36, 4-(2-(4-chlorophenyl)cyclopropyl)-6-(2,4-dioxo-1,2,3,4-tetrahydropyrimidin-5-yl)pyridazine-3-carbonitrile] |
| 3.8 | O=c1[nH]cc(-c2cc([C@H]3C[C@@H]3C#Cc3ccc(F)cc3)c(Cl)nn2)c(=O)[nH]1 [Compound 48] |
| 2.99 | N#Cc1cccc(C#C[C@H]2C[C@@H]2c2cc(-c3c[nH]c(=O)[nH]c3=O)nnc2Cl)c1 [Compound 19, 3-(((1S,2S)-2-(3-chloro-6-(2,4-dioxo-1,2,3,4-tetrahydropyrimidin-5-yl)pyridazin-4-yl)cvclopropyl)ethynyl)benzonitrile] |
| 2.7 | O=c1[nH]cc(-c2cc(C3CC3c3ccc(Cl)cc3)c(Cl)nn2)c(=O)[nH]1 (centres unmarked) [Compound 28, 5-(6-chloro-5-(2-(4-chlorophenyl)cyclopropyl)pyridazin-3-yl)pyrimidine-2,4(1H,3H)-dione] |
| 3.7 | O=c1[nH]cc(-c2cc([C@H]3C[C@@H]3C#Cc3ccccn3)c(Cl)nn2)c(=O)[nH]1 [Compound 43] |
| 3.7 | N#Cc1ccc(C#C[C@H]2C[C@@H]2c2cc(-c3c[nH]c(=O)[nH]c3=O)nnc2Cl)nc1 [Compound 38, 6-(((1S,2S)-2-(3-chloro-6-(2,4-dioxo-1,2,3,4-tetrahydropyrimidin-5-yl)pyridazin-4-yl)cyclopropyl)ethynyl)nicotinonitrile] |
| 3.9 | O=c1[nH]cc(-c2cc(C3CC3c3ccc(C(F)(F)F)cc3)c(Cl)nn2)c(=O)[nH]1 (centres unmarked) [Compound 66] |
| 1430 | O=c1[nH]cc(-c2cc([C@@H]3C[C@H]3c3ccccc3)c(Cl)nn2)c(=O)[nH]1 [Compound D3, reference compound] |

| IC50 [nM] | Structure (SMILES) |
| --- | --- |
| 19.4 | N#Cc1nnc(-c2c[nH]c(=O)[nH]c2=O)cc1[C@H]1C[C@@H]1C#Cc1ccccn1 [Compound 56] |
| 4.4 | O=c1[nH]cc(-c2cc([C@H]3C[C@@H]3C#Cc3cccnc3)c(Cl)nn2)c(=O)[nH]1 [Compound 42] |
| 22.3 | CC(C)c1ccc(C2CC2c2cc(-c3c[nH]c(=O)[nH]c3=O)nnc2Cl)cc1 (centres unmarked) [Compound 64] |
| 5.8 | COc1nnc(-c2c[nH]c(=O)[nH]c2=O)cc1[C@H]1C[C@@H]1C#Cc1ccccn1 [Compound 52] |
| 15 | O=c1[nH]cc(-c2cc(C3CC3c3ccc(C(F)(F)F)c(F)c3)c(Cl)nn2)c(=O)[nH]1 (centres unmarked) [Compound 68] |
| 721 | CC[C@H]1C[C@@H]1c1cc(-c2c[nH]c(=O)[nH]c2=O)nnc1C1CC1 [Compound 3, 5-(6-cyclopropyl-5-((1S,2S)-2-ethylcyclopropyl)pyridazin-3-yl)pyrimidine-2,4(1H,3H)-dione] |
| 8.5 | N#Cc1ccc(C2CC2c2cc(-c3c[nH]c(=O)[nH]c3=O)nnc2C#N)cc1 (centres unmarked) [Compound 78, 4-(2-(4-cyanophenyl)cyclopropyl)-6-(2,4-dioxo-1,2,3,4-tetrahydropyrimidin-5-yl)pyridazine-3-carbonitrile] |
| 5.2 | Cc1ccc(C2CC2c2cc(-c3c[nH]c(=O)[nH]c3=O)nnc2Cl)cc1 (stereo not drawn) [Compound 24, 5-(6-chloro-S-(2-(p-tolyl)cyclopropyl)pyridazin-3-yl)pyrimidine-2,4(1H,3H)-dione] |
| 92.7 | C/C=C/[C@H]1C[C@@H]1c1cc(-c2c[nH]c(=O)[nH]c2=O)nnc1C [Compound 8, 5-(6-methyl-5-((1S,2R)-2-((E)-prop-1-en-1-yl)cyclopropyl)pyridazin-3-yl)pyrimidine-2,4(1H,3H)-dione] |
| 8.2 | N#Cc1nnc(-c2c[nH]c(=O)[nH]c2=O)cc1[C@H]1C[C@@H]1C#Cc1ccccc1 [Compound 54] |
| 21 | C=C[C@H]1C[C@@H]1c1cc(-c2c[nH]c(=O)[nH]c2=O)nnc1C [Compound 7, 5-(6-methyl-5-((1S,2R)-2-vinylcyclopropyl)pyridazin-3-yl)pyrimidine-2,4(1H,3H)-dione] |
| 31 | Cc1nnc(-c2c[nH]c(=O)[nH]c2=O)cc1[C@H]1C[C@@H]1/C=C/C#N [Compound 10, (E)-3-((1R,2S)-2-(6-(2,4-dioxo-1,2,3,4-tetrahydropyrimidin-5-yl)-3-methylpyridazin-4-yl)cyclopropyl)acrylonitrile] |
| 1.1 | N#Cc1nnc(-c2c[nH]c(=O)[nH]c2=O)cc1C1CC1c1ccc(F)cc1 (centres unmarked) [Compound 35, 6-(2,4-dioxo-1,2,3,4-tetrahydropyrimidin-5-yl)-4-(2-(4-fluorophenyl)cyclopropyl)pyridazine-3-carbonitrile] |
| 1.5 | N#Cc1ccc(C#C[C@H]2C[C@@H]2c2cc(-c3c[nH]c(=O)[nH]c3=O)nnc2Cl)cc1 [Compound 45] |
| 7.5 | Cc1nnc(-c2c[nH]c(=O)[nH]c2=O)cc1[C@H]1C[C@@H]1C#Cc1ccccc1 [Compound 41, 5-(6-methyl-5-((1S,2S)-2-(phenylethynyl)cyclopropyl)pyridazin-3-yl)pyrimidine-2,4(1H,3H)-dione] |
| 1.8 | O=c1[nH]cc(-c2cc(C3CC3c3ccc(F)cc3)c(Cl)nn2)c(=O)[nH]1 (centres unmarked) [Compound 27, 5-(6-chloro-5-(2-(4-fluorophenyl)cyclopropyl)pyridazin-3-yl)pyrimidine-2,4(1H,3H)-dione] |
| 22.6 | C=C1CC(c2cc(-c3c[nH]c(=O)[nH]c3=O)nnc2Cl)C1 [Compound 4, 5-(6-chloro-5-(3-methylenecyclobutyl)pyridazin-3-yl)pyrimidine-2,4(1H,3H)-dione] |
| 5.6 | Cc1ccc(C2CC2c2cc(-c3c[nH]c(=O)[nH]c3=O)nnc2Cl)cc1C (centres unmarked) [Compound 62] |
| 4.2 | COc1nnc(-c2c[nH]c(=O)[nH]c2=O)cc1C1CC1c1ccccc1 (centres unmarked) [Compound 31, 5-(6-methoxy-5-(2-phenylcyclopropyl)pyridazin-3-yl)pyrimidine-2,4(1H,3H)-dione] |
| 50.7 | C=CC1CC1c1cc(-c2c[nH]c(=O)[nH]c2=O)nnc1C (centres unmarked) [Compound 6, 5-(6-methyl-5-(2-vinylcyclopropyl)pyridazin-3-yl)pyrimidine-2,4(1H,3H)-dione] |
| 21.6 | C=Cc1nnc(-c2c[nH]c(=O)[nH]c2=O)cc1[C@H]1C[C@@H]1CC [Compound 1, 5-(5-((1S,2S)-2-ethylcyclopropyl)-6-vinylpyridazin-3-yl)pyrimidine-2,4(1H,3H)-dione] |
| 4.4 | N#Cc1ccccc1C#C[C@H]1C[C@@H]1c1cc(-c2c[nH]c(=O)[nH]c2=O)nnc1Cl [Compound 46] |
